One series is described as follows: Oral. The settings on record: human, plasma, 11 mg, control.
The nature of another series: Intravenous. The settings on record: for EH (hepatic extraction) / AUC(0-inf) / Cmax: 6.0 mg IV methadone HCl; for AUC(0-t) / AUC(0-inf) / Cmax: human, plasma, iv, 6 mg; for AUC(0-t): AUC0-96, 6.0 mg IV methadone HCl; for AUC(0-inf): AUC0-∞.
The test system of series [1] is dark-adapted pupil diameter (miosis). Put plainly: Methadone pupil effect. Format: in vivo, human. The settings on record: for AUEC0-∞ / Maximum miosis: 6.0 mg IV and 11.0 mg oral methadone HCl.
The subject of the next series is CYP3A. The settings on record: in vivo; cited from earlier work.
Where [2] appears, read: steady-state ritonavir/indinavir.

The source of these data is paper PMC3111241 (Anesthesiology, 2009).

Molecules are shown by their SMILES.

The term AUC(0-t) denotes the area under the concentration-time curve up to a stated or last time point. A higher AUC(0-t) goes with more exposure. One may read the AUC(0-inf) as the area under the concentration-time curve extrapolated to infinity. Lower therefore signals less exposure. The term Cmax denotes the maximum level reached in the sampled fluid or tissue.

Take `CCC(=O)C(C[C@H](C)N(C)C)(c1ccccc1)c1ccccc1` [S-methadone]: the AUC(0-t) in “Oral” (AUC0-96, 11.0 mg oral methadone HCl) was determined as 639 ± 165 ng·h/mL; in “Intravenous” (acute ritonavir/indinavir), 353 ± 150 ng·h/mL; in “Intravenous” (control), 401 ± 81 ng·h/mL; in the series “Intravenous” (setting [2]), 377 ± 170 ng·h/mL. For the same molecule, the total exposure AUC(0-inf) was determined as 710 ± 185 ng·h/mL in “Oral” (AUC0-∞, 11.0 mg oral methadone HCl); 390 ± 178 ng·h/mL in “Intravenous” (acute ritonavir/indinavir); 436 ± 91 ng·h/mL in “Intravenous” (control); 406 ± 185 ng·h/mL in the series “Intravenous” (setting [2]). Further, the Cmax in “Oral” (Cmax, 11.0 mg oral methadone HCl) was 23 ± 6 ng/mL; in the series “Intravenous” (acute ritonavir/indinavir), 69 ± 26 ng/mL; in “Intravenous” (control) it was 90 ± 53 ng/mL; in the series “Intravenous” (setting [2]), 80 ± 33 ng/mL. In addition, the “EH (hepatic extraction)” value in “Intravenous” (acute ritonavir/indinavir) is given as 0.10 ± 0.04; in “Intravenous” (control), 0.08 ± 0.02; in “Intravenous” (setting [2]) it was 0.10 ± 0.04.
With `CCC(=O)C(CC(C)N(C)C)(c1ccccc1)c1ccccc1` (centres unmarked) [methadone], the “AUEC0-∞” value in series [1] (acute ritonavir/indinavir) was 65 ± 26 mm/h; in series [1] (control) it was 52 ± 24 mm/h; in series [1] (setting [2]) it was 48 ± 25 mm/h. Moreover, the values for the Maximum miosis in series [1] (acute ritonavir/indinavir), in series [1] (control) and in series [1] (setting [2]) were 3.5 ± 0.7 mm, 2.9 ± 1.0 mm and 3.2 ± 0.8 mm, respectively. Also, the “methadone miosis and concentration-effect relationships, change by acute or steady-state ritonavir/indinavir” value in series [1] (in vivo) was “not significantly changed”.
`Cc1c(O)cccc1C(=O)N[C@@H](CSc1ccccc1)[C@H](O)CN1C[C@H]2CCCC[C@H]2C[C@H]1C(=O)NC(C)(C)C` [nelfinavir]: in the series with CYP3A, the “inhibition of hepatic and first-pass CYP3A” value is on record as above 75%.
